Measurements taken from ChEMBL document CHEMBL1143363, “Discovery of trisubstituted cyclohexanes as potent CC chemokine receptor 2 (CCR2) antagonists” (Bioorg Med Chem Lett, 2009).

Legend:
[1] = target: T1, C-C chemokine receptor type 2 (Homo sapiens, UniProt P41597); assay: Displacement of [125I]MCP1 from CCR2 in human PBMCs
Target sequence in this assay (P41597 whole entry): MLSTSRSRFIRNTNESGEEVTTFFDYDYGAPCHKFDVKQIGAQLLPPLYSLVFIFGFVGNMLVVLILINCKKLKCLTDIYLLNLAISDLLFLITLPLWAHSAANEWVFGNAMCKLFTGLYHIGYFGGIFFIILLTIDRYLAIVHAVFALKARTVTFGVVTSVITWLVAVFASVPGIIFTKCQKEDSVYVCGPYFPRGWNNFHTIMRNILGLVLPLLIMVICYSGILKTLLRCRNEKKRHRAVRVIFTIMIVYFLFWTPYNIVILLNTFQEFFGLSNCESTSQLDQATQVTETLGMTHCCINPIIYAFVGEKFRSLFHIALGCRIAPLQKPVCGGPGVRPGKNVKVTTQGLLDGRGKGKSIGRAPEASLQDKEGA

[2] = target: T1, C-C chemokine receptor type 2; assay: Displacement of [125I]MCP1 from CCR2 in human PBMCs at 1 uM
Target sequence in this assay (P41597 whole entry, looked up): as the sequence (P41597 whole entry) above

[3] = target: T1, C-C chemokine receptor type 2; assay: Antagonist activity at CCR2 in human monocytes assessed as inhibition of MCP1-induced calcium influx by FLIPR; type: functional, cell-based
Target sequence in this assay (P41597 whole entry): as above

[4] = Antagonist activity at CCR2 in human PBMCs assessed as inhibition of MCP1-induced chemotaxis

| Structure (SMILES) | IC50 [1] [nM] | Activity [2] [%] | IC50 [3] [nM] | IC50 [4] [nM] |
| --- | --- | --- | --- | --- |
| CNC(=O)NC1CCC(NC(=O)c2ccc(SC)cc2)C(NC(=O)CNC(=O)c2cc(C(F)(F)F)ccc2N)C1 (racemic) | 112 |  |  |  |
| CSc1ccc(C(=O)NC2CC(NC(=O)OCc3ccccc3)CCC2NC(=O)CNC(=O)c2cccc(C(F)(F)F)c2)cc1 (racemic; form 1) |  | 14 |  |  |
| CN(C)C1CCC(NC(=O)CNC(=O)c2cccc(C(F)(F)F)c2)C(NCc2cccc(C(F)(F)F)c2)C1 (racemic) | 32.5 |  | 27 |  |
| CSc1ccc(C(=O)NC2CCC(N)CC2NC(=O)CNC(=O)c2cccc(C(F)(F)F)c2)cc1 (racemic) |  | 13 |  |  |
| CSc1ccc(C(=O)NC2CC(N)CCC2NC(=O)CNC(=O)c2cc(C(F)(F)F)ccc2N)cc1 (racemic) | 4.8 |  | 6 |  |
| CSc1ccc(C(=O)NC2CCC(NC(C)C)CC2NC(=O)CNC(=O)c2cccc(C(F)(F)F)c2)cc1 (racemic) | 136 |  |  |  |
| CSc1ccc(C(=O)NC2CCC(NC(=O)OCc3ccccc3)CC2NC(=O)CNC(=O)c2cc(C(F)(F)F)ccc2N)cc1 (racemic) |  | 3.1 |  |  |
| CSc1ccc(C(=O)NC2CC(NC(C)C)CCC2NC(=O)CNC(=O)c2cccc(C(F)(F)F)c2)cc1 (racemic) |  | 31.4 |  |  |
| CN(C)C1CCC(NC(=O)CNC(=O)c2cccc(C(F)(F)F)c2)C(NCc2ccc3[nH]ccc3c2)C1 (racemic) | 3.1 |  | 8 |  |
| Cc1ccc(CNC2CC(N(C)C)CCC2NC(=O)CNC(=O)c2cccc(C(F)(F)F)c2)cc1 (racemic) | 9.9 |  | 5.5 |  |
| CSc1ccc(C(=O)NC2CCC(NC(C)C)CC2NC(=O)CNC(=O)c2cc(C(F)(F)F)ccc2N)cc1 (racemic) | 3.8 |  | 2 |  |
| CN(C)C1CCC(NC(=O)CNC(=O)c2cccc(C(F)(F)F)c2)C(NCc2ccc(Cl)cc2)C1 (racemic) | 16 |  | 7 |  |
| CSc1ccc(C(=O)NC2CCC(N)CC2NC(=O)CNC(=O)c2cc(C(F)(F)F)ccc2N)cc1 (racemic) | 167 | 28.1 |  |  |
| CSc1ccc(C(=O)NC2CCC(NC(=O)OCc3ccccc3)CC2NC(=O)CNC(=O)c2cccc(C(F)(F)F)c2)cc1 (racemic) | 1610 | 0 |  |  |
| CSc1ccc(C(=O)NC2CCNCC2NC(=O)CNC(=O)c2cc(C(F)(F)F)ccc2N)cc1 (racemic) |  |  |  | 109 |
| CSc1ccc(C(=O)NC2CC(N)CCC2NC(=O)CNC(=O)c2cccc(C(F)(F)F)c2)cc1 (racemic) | 228 |  |  |  |
| CSc1ccc(C(=O)NC2CCCCC2NC(=O)CNC(=O)c2cc(C(F)(F)F)ccc2N)cc1 (racemic) | 155 |  |  |  |
| CC(=O)Nc1ccc(CNC2CC(N(C)C)CCC2NC(=O)CNC(=O)c2cccc(C(F)(F)F)c2)cc1 (racemic) | 7.7 |  |  |  |
| CSc1ccc(C(=O)NC2CC(NC(=O)OCc3ccccc3)CCC2NC(=O)CNC(=O)c2cccc(C(F)(F)F)c2)cc1 (racemic; form 2) | 2.4 |  | 2 |  |
| CN(C)C1CCC(NC(=O)CNC(=O)c2cccc(C(F)(F)F)c2)C(NCc2ccc(Cl)c(Cl)c2)C1 (racemic) | 61.5 |  |  |  |
| CSc1ccc(CNC2CC(N(C)C)CCC2NC(=O)CNC(=O)c2cccc(C(F)(F)F)c2)cc1 (racemic) | 2.4 |  | 6 |  |
| CC(C)c1ccc(CNC2CC(N(C)C)CCC2NC(=O)CNC(=O)c2cccc(C(F)(F)F)c2)cc1 (racemic) | 16.5 |  | 19 |  |
| CSc1ccc(C(=O)NC2CCC(NC(=O)OCc3ccccc3)CC2NC(=O)CNC(=O)c2cc(C(F)(F)F)ccc2NC(=O)OC(C)(C)C)cc1 (racemic) | 600 |  |  |  |
| COc1ccc(CNC2CC(N(C)C)CCC2NC(=O)CNC(=O)c2cccc(C(F)(F)F)c2)cc1 (racemic) | 12.5 |  | 8 |  |
